In ChEMBL document CHEMBL2057064, “Activation of human RNase L by 2'- and 5'-O-methylphosphonate-modified oligoadenylates” (Bioorg Med Chem Lett, 2012):
Activity calls are given as the source filed them. The calls are words filed in the database; no cut-off is given here.

Tests used:
[1] = biological target: T1, 2-5A-dependent ribonuclease (Homo sapiens, UniProt Q05823); assay: (§1) Activation of human RNase L expressed in Escherichia coli BL21 (DE3) cells assessed as RNA cleavage using Cy5-rC11-UU-C7-BHQ2 as substrate by FRET assay
T1 sequence (Q05823 whole entry): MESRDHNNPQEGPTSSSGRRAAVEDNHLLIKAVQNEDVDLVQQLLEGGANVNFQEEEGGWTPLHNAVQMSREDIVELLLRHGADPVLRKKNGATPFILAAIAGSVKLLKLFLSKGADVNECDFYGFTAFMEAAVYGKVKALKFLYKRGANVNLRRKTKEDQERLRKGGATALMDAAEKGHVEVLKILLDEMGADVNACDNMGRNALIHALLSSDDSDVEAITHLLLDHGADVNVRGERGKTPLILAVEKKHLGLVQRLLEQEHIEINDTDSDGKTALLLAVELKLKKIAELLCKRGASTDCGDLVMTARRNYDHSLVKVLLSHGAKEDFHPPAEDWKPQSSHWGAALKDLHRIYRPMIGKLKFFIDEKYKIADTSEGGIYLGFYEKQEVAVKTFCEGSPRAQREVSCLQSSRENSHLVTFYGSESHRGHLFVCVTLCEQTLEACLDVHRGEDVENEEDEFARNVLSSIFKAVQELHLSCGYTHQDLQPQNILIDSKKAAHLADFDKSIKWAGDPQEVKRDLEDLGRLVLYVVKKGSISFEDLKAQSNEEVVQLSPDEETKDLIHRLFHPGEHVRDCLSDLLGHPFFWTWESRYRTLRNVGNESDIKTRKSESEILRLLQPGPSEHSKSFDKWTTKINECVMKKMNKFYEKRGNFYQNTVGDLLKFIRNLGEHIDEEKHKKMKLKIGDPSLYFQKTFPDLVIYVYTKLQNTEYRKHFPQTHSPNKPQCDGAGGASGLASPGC

[2] = biological target: T2, 2-5A-dependent ribonuclease (Homo sapiens) (UniProt Q05823); assay: as §1
T2 sequence (whole entry): T1 sequence (Q05823 whole entry)

[3] = biological target: T2, 2-5A-dependent ribonuclease (Homo sapiens); assay: Antagonist activity at human RNase L expressed in Escherichia coli BL21 (DE3) cells assessed as RNA cleavage using Cy5-C11-rUU-C7-BHQ2 as substrate by FRET assay in presence of natural activator pAAAA; format: functional

EC50 [1] | Activity [2] | inhibition [3] | Structure (SMILES)
> 1000 nM |  |  | Nc1ncnc2c1ncn2[C@@H]1O[C@H](COP(=O)(O)O[C@H]2[C@H](O)[C@@H](COCP(=O)(O)O[C@@H]3[C@H](O)[C@@H](COP(=O)(O)O[C@@H]4[C@H](O)[C@@H](COP(=O)(O)O)O[C@H]4n4cnc5c(N)ncnc54)O[C@H]3n3cnc4c(N)ncnc43)O[C@H]2n2cnc3c(N)ncnc32)[C@@H](O)[C@H]1O
4.2 nM | Active |  | Nc1ncnc2c1ncn2[C@@H]1O[C@H](COCP(=O)(O)O[C@@H]2[C@H](O)[C@@H](COP(=O)(O)O[C@@H]3[C@H](O)[C@@H](COP(=O)(O)O[C@@H]4[C@H](O)[C@@H](COP(=O)(O)O)O[C@H]4n4cnc5c(N)ncnc54)O[C@H]3n3cnc4c(N)ncnc43)O[C@H]2n2cnc3c(N)ncnc32)[C@H](O)[C@H]1O
17 nM |  |  | Nc1ncnc2c1ncn2[C@@H]1O[C@H](COP(=O)(O)O[C@@H]2[C@H](O)[C@@H](COP(=O)(O)O[C@@H]3[C@H](O)[C@@H](COP(=O)(O)O[C@@H]4[C@H](O)[C@@H](COP(=O)(O)O)O[C@H]4n4cnc5c(N)ncnc54)O[C@H]3n3cnc4c(N)ncnc43)O[C@H]2n2cnc3c(N)ncnc32)[C@@H](O)[C@H]1O
6.5 nM | Active |  | Nc1ncnc2c1ncn2[C@@H]1O[C@H](COCP(=O)(O)O[C@@H]2[C@H](O)[C@@H](COP(=O)(O)O[C@@H]3[C@H](O)[C@@H](COP(=O)(O)O[C@@H]4[C@H](O)[C@@H](COP(=O)(O)O)O[C@H]4n4cnc5c(N)ncnc54)O[C@H]3n3cnc4c(N)ncnc43)O[C@H]2n2cnc3c(N)ncnc32)[C@@H](O)[C@@H]1O
300 nM | inactive |  | Nc1ncnc2c1ncn2[C@@H]1O[C@H](COP(=O)(O)O[C@@H]2[C@H](O)[C@@H](COCP(=O)(O)O[C@@H]3[C@H](O)[C@@H](COP(=O)(O)O[C@@H]4[C@H](O)[C@@H](COP(=O)(O)O)O[C@H]4n4cnc5c(N)ncnc54)O[C@H]3n3cnc4c(N)ncnc43)O[C@H]2n2cnc3c(N)ncnc32)[C@@H](O)[C@H]1O
200 nM | Active |  | Nc1ncnc2c1ncn2[C@@H]1O[C@H](COP(=O)(O)CO[C@@H]2[C@H](O)[C@@H](COP(=O)(O)O[C@@H]3[C@H](O)[C@@H](COP(=O)(O)O[C@@H]4[C@H](O)[C@@H](COP(=O)(O)O)O[C@H]4n4cnc5c(N)ncnc54)O[C@H]3n3cnc4c(N)ncnc43)O[C@H]2n2cnc3c(N)ncnc32)[C@@H](O)[C@H]1O
> 1000 nM |  |  | Nc1ncnc2c1ncn2[C@@H]1O[C@H](COP(=O)(O)CO[C@@H]2[C@@H](O)[C@@H](COP(=O)(O)O[C@@H]3[C@H](O)[C@@H](COP(=O)(O)O[C@@H]4[C@H](O)[C@@H](COP(=O)(O)O)O[C@H]4n4cnc5c(N)ncnc54)O[C@H]3n3cnc4c(N)ncnc43)O[C@H]2n2cnc3c(N)ncnc32)[C@@H](O)[C@H]1O
> 1000 nM |  |  | Nc1ncnc2c1ncn2[C@@H]1O[C@H](COP(=O)(O)O[C@@H]2[C@H](O)[C@@H](COP(=O)(O)O[C@@H]3[C@@H](O)[C@@H](COCP(=O)(O)O[C@@H]4[C@H](O)[C@@H](COP(=O)(O)O)O[C@H]4n4cnc5c(N)ncnc54)O[C@H]3n3cnc4c(N)ncnc43)O[C@H]2n2cnc3c(N)ncnc32)[C@@H](O)[C@H]1O
1000 nM | Active |  | Nc1ncnc2c1ncn2[C@@H]1O[C@H](COP(=O)(O)CO[C@H]2[C@H](O)[C@@H](COP(=O)(O)O[C@@H]3[C@H](O)[C@@H](COP(=O)(O)O[C@@H]4[C@H](O)[C@@H](COP(=O)(O)O)O[C@H]4n4cnc5c(N)ncnc54)O[C@H]3n3cnc4c(N)ncnc43)O[C@H]2n2cnc3c(N)ncnc32)[C@@H](O)[C@H]1O
> 1000 nM |  |  | Nc1ncnc2c1ncn2[C@@H]1O[C@H](COP(=O)(O)O[C@@H]2[C@H](O)[C@@H](COP(=O)(O)O[C@@H]3[C@H](O)[C@@H](COP(=O)(O)CO[C@@H]4[C@H](O)[C@@H](COP(=O)(O)O)O[C@H]4n4cnc5c(N)ncnc54)O[C@H]3n3cnc4c(N)ncnc43)O[C@H]2n2cnc3c(N)ncnc32)[C@@H](O)[C@H]1O
53 nM |  |  | Nc1ncnc2c1ncn2[C@@H]1O[C@H](COP(=O)(O)O[C@@H]2[C@H](O)[C@@H](COP(=O)(O)O[C@@H]3[C@H](O)[C@@H](COP(=O)(O)O[C@@H]4[C@H](O)[C@@H](COCP(=O)(O)O)O[C@H]4n4cnc5c(N)ncnc54)O[C@H]3n3cnc4c(N)ncnc43)O[C@H]2n2cnc3c(N)ncnc32)[C@@H](O)[C@H]1O
300 nM | Active |  | Nc1ncnc2c1ncn2[C@@H]1O[C@H](COP(=O)(O)O[C@@H]2[C@H](O)[C@@H](COP(=O)(O)O[C@@H]3[C@H](O)[C@@H](COP(=O)(O)CO[C@@H]4[C@@H](O)[C@@H](COP(=O)(O)O)O[C@H]4n4cnc5c(N)ncnc54)O[C@H]3n3cnc4c(N)ncnc43)O[C@H]2n2cnc3c(N)ncnc32)[C@@H](O)[C@H]1O
> 1000 nM |  |  | Nc1ncnc2c1ncn2[C@@H]1O[C@H](COP(=O)(O)O[C@@H]2[C@H](O)[C@@H](COP(=O)(O)CO[C@@H]3[C@H](O)[C@@H](COP(=O)(O)O[C@@H]4[C@H](O)[C@@H](COP(=O)(O)O)O[C@H]4n4cnc5c(N)ncnc54)O[C@H]3n3cnc4c(N)ncnc43)O[C@H]2n2cnc3c(N)ncnc32)[C@@H](O)[C@H]1O
> 1000 nM | inactive |  | Nc1ncnc2c1ncn2[C@@H]1O[C@H](COP(=O)(O)O[C@@H]2[C@H](O)[C@@H](COP(=O)(O)O[C@@H]3[C@H](O)[C@@H](COCP(=O)(O)O[C@@H]4[C@H](O)[C@@H](COP(=O)(O)O)O[C@H]4n4cnc5c(N)ncnc54)O[C@H]3n3cnc4c(N)ncnc43)O[C@H]2n2cnc3c(N)ncnc32)[C@@H](O)[C@H]1O
> 1000 nM |  |  | Nc1ncnc2c1ncn2[C@@H]1O[C@H](COP(=O)(O)O[C@@H]2[C@H](O)[C@@H](COP(=O)(O)O[C@H]3[C@H](O)[C@@H](COCP(=O)(O)O[C@@H]4[C@H](O)[C@@H](COP(=O)(O)O)O[C@H]4n4cnc5c(N)ncnc54)O[C@H]3n3cnc4c(N)ncnc43)O[C@H]2n2cnc3c(N)ncnc32)[C@@H](O)[C@H]1O
> 1000 nM |  |  | Nc1ncnc2c1ncn2[C@@H]1O[C@H](COP(=O)(O)O[C@@H]2[C@H](O)[C@@H](COP(=O)(O)CO[C@@H]3[C@@H](O)[C@@H](COP(=O)(O)O[C@@H]4[C@H](O)[C@@H](COP(=O)(O)O)O[C@H]4n4cnc5c(N)ncnc54)O[C@H]3n3cnc4c(N)ncnc43)O[C@H]2n2cnc3c(N)ncnc32)[C@@H](O)[C@H]1O
> 1000 nM |  |  | Nc1ncnc2c1ncn2[C@@H]1O[C@H](COP(=O)(O)O[C@@H]2[C@H](O)[C@@H](COP(=O)(O)CO[C@H]3[C@H](O)[C@@H](COP(=O)(O)O[C@@H]4[C@H](O)[C@@H](COP(=O)(O)O)O[C@H]4n4cnc5c(N)ncnc54)O[C@H]3n3cnc4c(N)ncnc43)O[C@H]2n2cnc3c(N)ncnc32)[C@@H](O)[C@H]1O
> 1000 nM |  |  | Nc1ncnc2c1ncn2[C@@H]1O[C@H](COP(=O)(O)O[C@@H]2[C@H](O)[C@@H](COP(=O)(O)O[C@@H]3[C@H](O)[C@@H](COP(=O)(O)CO[C@H]4[C@H](O)[C@@H](COP(=O)(O)O)O[C@H]4n4cnc5c(N)ncnc54)O[C@H]3n3cnc4c(N)ncnc43)O[C@H]2n2cnc3c(N)ncnc32)[C@@H](O)[C@H]1O
1000 nM | Active |  | Nc1ncnc2c1ncn2[C@@H]1O[C@H](COP(=O)(O)O[C@@H]2[C@H](O)[C@@H](COP(=O)(O)O[C@@H]3[C@H](O)[C@@H](COP(=O)(O)O[C@H]4[C@H](O)[C@@H](COCP(=O)(O)O)O[C@H]4n4cnc5c(N)ncnc54)O[C@H]3n3cnc4c(N)ncnc43)O[C@H]2n2cnc3c(N)ncnc32)[C@@H](O)[C@H]1O
300 nM | Active |  | Nc1ncnc2c1ncn2[C@@H]1O[C@H](COP(=O)(O)O[C@@H]2[C@H](O)[C@@H](COP(=O)(O)O[C@@H]3[C@H](O)[C@@H](COP(=O)(O)O[C@@H]4[C@@H](O)[C@@H](COCP(=O)(O)O)O[C@H]4n4cnc5c(N)ncnc54)O[C@H]3n3cnc4c(N)ncnc43)O[C@H]2n2cnc3c(N)ncnc32)[C@@H](O)[C@H]1O
 |  | inactive | Nc1ncnc2c1ncn2[C@@H]1O[C@H](COP(=O)(O)O[C@@H]2[C@H](O)[C@@H](COP(=O)(O)O[C@@H]3[C@@H](O)[C@@H](COCP(=O)(O)O[C@@H]4[C@@H](O)[C@@H](COCP(=O)(O)O)O[C@H]4n4cnc5c(N)ncnc54)O[C@H]3n3cnc4c(N)ncnc43)O[C@H]2n2cnc3c(N)ncnc32)[C@@H](O)[C@H]1O
15 nM | Active |  | Nc1ncnc2c1ncn2[C@@H]1O[C@H](COCP(=O)(O)O[C@@H]2[C@H](O)[C@@H](COP(=O)(O)O[C@@H]3[C@H](O)[C@@H](COP(=O)(O)O[C@@H]4[C@H](O)[C@@H](COP(=O)(O)O)O[C@H]4n4cnc5c(N)ncnc54)O[C@H]3n3cnc4c(N)ncnc43)O[C@H]2n2cnc3c(N)ncnc32)[C@@H](O)[C@H]1O
 |  | inactive | Nc1ncnc2c1ncn2[C@@H]1O[C@H](COP(=O)(O)O[C@@H]2[C@H](O)[C@@H](COP(=O)(O)O[C@H]3[C@H](O)[C@@H](COCP(=O)(O)O[C@H]4[C@H](O)[C@@H](COCP(=O)(O)O)O[C@H]4n4cnc5c(N)ncnc54)O[C@H]3n3cnc4c(N)ncnc43)O[C@H]2n2cnc3c(N)ncnc32)[C@@H](O)[C@H]1O
